Assay results: patent US20170246223A1 (priority 2016, published 2017)

Experiments:
E. coli = experiment: in vitro cytotoxicity screen of drugs co-incubated with E. coli (tumour cell survival, MTS); format: cell-based, E. coli Nissle 1917; settings: drug co-incubated with E. coli, bacteria removed, filtrate applied to tumour cells; change relative to reference cytotoxic effect (drug without bacteria)
Method: (§1) 1. Bacteria and Drug are mixed in DMEM medium, and co-incubated for 3 h at 37° C. 2. The drug is separated from bacteria using centrifugation and filtration. 3. The filter sterilised DMEM containing the transformed drug is applied to tumour cells in a 96 well plate. 4. Tumour cell viability is evaluated via the MTS assay for end point measurements.
Bioluminescent E. coli was described by us previously and cultured in the presence of […] erythromycin. Listeria welshimeri Serovar 6B SLCC5334 was purchased from ECACC and cultivated at 37° C. in Brain Heart Infusion (BHI) medium. B. breve UCC2003 and Lactococcus lactis (UCC Culture Collection) was routinely grown at 37° C. in reinforced clostridial medium and M17 medium respectively (Oxoid, Basingstoke, UK). All lactobacilli strains were a kind gift of Dr. Cormac Gahan, UCC School of microbiology, and were grown in lactobacillus MRS broth (Beckton Dickinson). The E. coli nitroreductase deletion mutants and parent strains were kindly provided by Dr. Antonio Valle and grown in LB broth/agar with appropriate antibiotics. The strain Δ+A was created by transforming AB502 (streptomycin, kanamycin sensitive derivative of parent strain AB1157) with the plasmid pNZ44 (chloramphenicol resistance) carrying the gene nfsA. The strain Δ+B was created by transforming AB502 with the plasmid pTrc99A (ampicillin resistance) containing the gene nfsB (see below).
Microtitre plates (96-well) were pre-seeded with 4000 cells/well in appropriate medium for each cell line and allowed to attach overnight. The next day, bacteria were cultured to log-phase or stationery phase (Gram-positive) resuspended in PBS and added to 2 mls of DMEM to an OD600mn of 0.1-0.2 for E. coli 0.05 for Lactococcus lactis, and 0.3-0.4 for the rest of the Grand-positives. Each strain was exposed for 2-3 h to drug in a tissue culture incubator. Bacteria were separated from the drug by centrifugation and filter sterilisation using 0.2 μm pore filters (Starsted) after which 200 μl of filtrate was transferred to each well. […] Cytotoxicity was quantified using an MTS staining with the Cell Titre 96 AQueous One solution Cell Proliferation Assay (Promega). The plates were measured and analysed in a Spectra max M2 (Molecular devices) spectrophotometer at 490 nm.

CT26 tumours = experiment: Subcutaneous flank CT26 tumours in Balb/c mice, bacteria i.t. plus drug i.p., survival; format: in vivo
Method: Subcutaneous flank CT26 tumours growing in Balb/c mice were injected i.t with bacteria or PBS vehicle alone. Gemcitabine (60 mg/kg) was injected i.p. five times at three day intervals. FIG. 3A) Tumour volume (%) relative to the first day of gemcitabine injection (day 0) is shown. *P<0.03, **P=0.002 for gemcitabine alone versus gemcitabine+bacteria. […] Data are expressed as mean±SEM of 4 to 8 individual mice per group.
Subcutaneous flank CT26 tumours growing in Balb/c mice were injected i.t with bacteria or PBS vehicle alone. CB1954 (20 mg/kg) was injected i.p. for the duration of the experiment at 3 day intervals. FIG. 4A) Tumour volume (%) relative to the first day of CB1954 injection (day 0) is shown. […] P=0.0374). Data are expressed as mean±SEM of 3-5 individual mice per group.
FIGS. 12A-12D: Tumour therapy via in vivo activation of prodrugs. BALB/c mice bearing subcutaneous CT26 flank tumours colonised by E. coli Nissle 1917 received IP injections of CB1954+PBS, 5-FC+PBS, CB1954+5-FC or PBS three times per week. Tumours were monitored for changes in volume and luminescence (where applicable) from live bacteria on each treatment day. FIG. 12A) The change in bacterial luminescence (relative to day 0) from tumour colonising luminescent E. coli is shown. […] FIG. 12B) Changes in CT26 tumour volume were monitored until the first death in the group determined by a predefined endpoint. FIG. 12C-12D) Survival plot of each group starting from the first day of bacteria/drug administration.
Animals and tumour induction: 6-8 week old female BALB/c mice weighing approximately 18-20 g were kept as previously described. For tumour induction, a 200 μl suspension of 2×10^5 CT26 cells in serum free Dulbecco's Modified Eagle's Medium (DMEM) culture medium were injected subcutaneously into the flank of BALB/c mice. The viability of inoculated cells was determined using the Nucleocounter system (ChemoMetec). Tumour growth was monitored three times per week by caliper measurement and mice were randomly assigned to groups when the tumours reached approximately 100 mm^3 in volume. Mice were culled once tumours reached 1.5×1.5 cm in size (predetermined endpoint).
Bacterial administration to mice: Bacteria were grown overnight in LB medium and in a shaking incubator at 37° C. These bacteria were used to inoculate fresh growth medium and allowed to grow until reaching OD600 0.6. […]
Statistical analysis For biological in vitro and in vivo assays, two-sided, paired student's t test with 95% confidence or Mann Whitney U test were employed to investigate statistical differences, using GraphPad Prism@5.0 or Microsoft Excel 12. […] Statistical significance of survival between groups in murine experiments was determined using the Log-rank (Mantel-Cox) Test. […]

L. welshimeri = experiment: in vitro cytotoxicity screen of drugs co-incubated with L. welshimeri (tumour cell survival, MTS); format: cell-based, Listeria welshimeri Serovar 6B SLCC5334; settings: drug co-incubated with L. welshimeri, bacteria removed, filtrate applied to tumour cells; change relative to reference cytotoxic effect (drug without bacteria)
Method: as §1
Bioluminescent E. coli was described by us previously and cultured in the presence of […] erythromycin. Listeria welshimeri Serovar 6B SLCC5334 was purchased from ECACC and cultivated at 37° C. in Brain Heart Infusion (BHI) medium. B. breve UCC2003 and Lactococcus lactis (UCC Culture Collection) was routinely grown at 37° C. in reinforced clostridial medium and M17 medium respectively (Oxoid, Basingstoke, UK). All lactobacilli strains were a kind gift of Dr. Cormac Gahan, UCC School of microbiology, and were grown in lactobacillus MRS broth (Beckton Dickinson). […]
Microtitre plates (96-well) were pre-seeded with 4000 cells/well in appropriate medium for each cell line and allowed to attach overnight. […] Cytotoxicity was quantified using an MTS staining with the Cell Titre 96 AQueous One solution Cell Proliferation Assay (Promega). The plates were measured and analysed in a Spectra max M2 (Molecular devices) spectrophotometer at 490 nm.

Row | SMILES | Cytotoxicity E. coli (E. coli) | also measured
1 | CC1(C)CCC2=C(O1)c1ccccc1C(=O)C2=O [B-Lapachone] | Down | 
2 | Nc1ccn([C@@H]2O[C@H](CO)[C@@H](O)C2(F)F)c(=O)n1 [Gemcitabine] | Down | median survival post Day 0 (CT26 tumours; gemcitabine alone group (PBS i.t.), 60 mg/kg i.p. five times at three day intervals): 28 days; median survival post Day 0 (CT26 tumours; gemcitabine+bacteria group, E. coli i.t., gemcitabine 60 mg/kg i.p. five times at three day intervals, P=0.008 vs gemcitabine alone): 17 days
3 | Nc1nc(Cl)nc2c1ncn2[C@H]1C[C@H](O)[C@@H](CO)O1 [Cladribine] | reduced cytotoxic effect and Down | 
4 | NC(=O)c1cc(N2CC2)c([N+](=O)[O-])cc1[N+](=O)[O-] [CB1954] | Up | median survival post Day 0 (CT26 tumours; CB1954+bacteria group, E. coli i.t., CB1954 20 mg/kg i.p. at 3 day intervals, P=0.0374 vs CB1954 alone): 26 days; median survival post Day 0 (CT26 tumours; CB1954 alone group (PBS i.t.), 20 mg/kg i.p. at 3 day intervals): 8 days
5 | Nc1ncnc2c1ncn2[C@@H]1O[C@H](CO)[C@@H](O)[C@@H]1O [Vidarabine] | Down | 
6 | COc1cccc2c1C(=O)c1c(O)c3c(c(O)c1C2=O)C[C@@](O)(C(=O)CO)C[C@@H]3O[C@H]1C[C@H](N)[C@H](O)[C@H](C)O1 [Doxorubicin] | Down | 
7 | CC(=O)[C@]1(O)Cc2c(O)c3c(c(O)c2[C@@H](O[C@H]2C[C@H](N)[C@H](O)[C@H](C)O2)C1)C(=O)c1ccccc1C3=O [Idarubicin] | Down | 
8 | O=c1[nH]c(=O)n(C2CCCO2)cc1F (stereo not drawn) [Tegafur] | Up | 
9 | OC[C@H]1O[C@@H](n2cnc3c(S)ncnc32)C[C@@H]1O [6-Mercaptopurine-2′-deoxyriboside] | Up | 
10 | COc1cccc2c1C(=O)c1c(O)c3c(c(O)c1C2=O)C[C@@](O)(C(C)=O)C[C@@H]3O[C@H]1C[C@H](N)[C@H](O)[C@H](C)O1 [Daunorubicin] | Down | 
11 | Nc1nc(=O)[nH]cc1F [5-fluorocytosine] | Up | 
12 | Nc1nc(F)nc2c1ncn2[C@@H]1O[C@H](COP(=O)(O)O)[C@@H](O)[C@@H]1O [Fludarabine de phosphate] | Up | Cytotoxicity L. welshimeri (L. welshimeri): Up
13 | C[N+](C)([O-])CCNc1ccc(NCC[N+](C)(C)[O-])c2c1C(=O)c1c(O)ccc(O)c1C2=O [AQ4N] | Up | 
14 | O=C1c2c(O)ccc(O)c2C(=O)c2c(NCCNCCO)ccc(NCCNCCO)c21 [Mitoxantrone] | Down | 
15 | CC1=CC(=O)c2ccccc2C1=O [Menadione] | Down | 
16 | COc1cc([C@@H]2c3cc4c(cc3[C@@H](O[C@@H]3O[C@@H]5CO[C@@H](C)O[C@H]5[C@H](O)[C@H]3O)[C@H]3COC(=O)[C@H]23)OCO4)cc(OC)c1OP(=O)(O)O [Etoposide phosphate] | Down | 
